In patent US20250275969A1, “METHODS OF TREATING MALIGNANT PERIPHERAL NERVE SHEATH TUMOR (MPNST) USING LSD1 INHIBITORS” (ORYZON GENOMICS, S.A., priority 2022, published 2025):

Legend:
Format in all cases: cell-based
[1] = tested on: sNF96.2; assay: MPNST viability assay (6 days, MTT or AlamarBlue); conditions: for EC50: cell viability, sNF96.2, 6 days of treatment
Protocol: (§1) Mycoplasma-free MPNST cell lines (see Table 1) were seeded in 50 μl/well of complete medium (DMEM high glucose supplemented with 1× GlutaMAX™, 1× sodium pyruvate and 10% fetal bovine serum (FBS), Thermo Fisher) in 96-well plates at the optimal cell density to ensure log-phase growth throughout the duration of the experiment (see Table 1). The day after seeding, 50 μl of medium containing 9 serial dilutions (1:3) of 2×-concentrated iadademstat (LSD1 inhibitor; used as the dihydrochloride salt) were added to the cells to obtain 100 μl of cells treated with 1×-concentrated compound at each dilution. Etoposide (topoisomerase II/DNA synthesis inhibitor) was also included as a positive control of the assay. Additionally, from the MPNST cell line panel, two cell lines (sNF96.2 and sNF02.2) were selected to evaluate the effect of other LSD1 inhibitors, i.e. bomedemstat (bis-tosylate salt) and pulrodemstat (besylate salt). Each experimental condition was tested in technical triplicates, including medium-only wells and vehicle-treated controls for background correction and normalization, respectively. After treatment, cells were incubated at 37° C. in a humidified and controlled 5% CO2 atmosphere for 72 h. At this time-point, compound and medium refreshment was performed by adding 50 μl of medium supplemented with 1×-concentrated compound at each corresponding dilution. Cells were incubated for additional 72 h (for a total of 6 days) prior to evaluating cell viability using either the MTT assay (Sigma-Aldrich) or AlamarBlue™ Cell viability reagent (Life Technologies), following manufacturer's instructions. Background was calculated as the mean of the values of medium-only controls and subtracted from each data point. The average of background-corrected technical triplicates was calculated and normalized by the mean of vehicle-treated controls (corresponding to 100% of viability). Data were analyzed using GraphPad PRISM® version 9.0.1 (GraphPad Software, Inc., La Jolla, CA/USA) to calculate the best-fitting curves and the EC50 values (corresponding to the concentration of compound at which a half (50%) maximal effect is obtained; lower EC50 values thus indicate greater potency).
(§2) LSD1 inhibitors such as iadademstat have been reported to exert their therapeutic effect by inducing cancer cell differentiation and inhibiting cancer cell proliferation rather than by killing cancer cells (Sacilotto N et al., ACS Pharmacol Transl Sci, 2021, 4(6):1818-34, doi: 10.1021/acsptsci.1c00223). In line with this, a cancer cell viability reduction of more than 30% reflects a potent therapeutic effect of the corresponding LSD1 inhibitor. In the present experiment, the response obtained after LSD1 inhibitor treatment was therefore classified into the following three groups: (1) strong response (viability reduction >30%); (2) medium response (viability reduction >15% and <30%); (3) low response (viability reduction <15%). Table 3 summarizes the EC50 values obtained for etoposide (the positive control of the assay) and iadademstat together with the classification according to viability reduction after LSD1 inhibitor treatment.

[2] = tested on: sNF02.2; assay: MPNST viability assay (6 days, MTT or AlamarBlue); conditions: for EC50: cell viability, sNF02.2, 6 days of treatment
Protocol: as §1, §2

[3] = tested on: MPNST-NF1-08; assay: MPNST viability assay (6 days, MTT or AlamarBlue)
Protocol: as §1, §2

[4] = tested on: MPNST-SP-10; assay: MPNST viability assay (6 days, MTT or AlamarBlue); conditions: for EC50: cell viability, MPNST-SP-10, 6 days of treatment
Protocol: as §1, §2

[5] = tested on: MPNST-NF1-18b; assay: MPNST viability assay (6 days, MTT or AlamarBlue); conditions: for EC50: cell viability, 6 days of treatment
Protocol: as §1, §2

[6] = tested on: HS-PSS; assay: MPNST viability assay (6 days, MTT or AlamarBlue); conditions: for EC50: cell viability, 6 days of treatment
Protocol: as §1, §2

[7] = tested on: ST88-14; assay: MPNST viability assay (6 days, MTT or AlamarBlue); conditions: for EC50: cell viability, ST88-14, 6 days of treatment
Protocol: as §1, §2

[8] = tested on: 90-8TL; assay: MPNST viability assay (6 days, MTT or AlamarBlue); conditions: for EC50: cell viability, 6 days of treatment
Protocol: as §1, §2

[9] = tested on: S462; assay: MPNST viability assay (6 days, MTT or AlamarBlue); conditions: for EC50: cell viability, S462, 6 days of treatment
Protocol: as §1, §2

[10] = tested on: MPNST-NF1-09; assay: MPNST viability assay (6 days, MTT or AlamarBlue)
Protocol: as §1, §2

[11] = tested on: NMS-2; assay: MPNST viability assay (6 days, MTT or AlamarBlue)
Protocol: as §1, §2

[12] = tested on: MPNST-SP-01; assay: MPNST viability assay (6 days, MTT or AlamarBlue)
Protocol: as §1, §2

[13] = tested on: panel of 12 MPNST cell lines; assay: MPNST viability assay, summary over the cell line panel
Protocol: as §1
A panel of 12 MPNST cell lines was used to evaluate the effects of the LSD1 inhibitor iadademstat on MPNST cell viability after 6 days of treatment, and etoposide was used as a positive control of the assay. In order for the in vitro experiments to reliably mirror the situation in the clinical setting, where MPNST patients feature a great genomic heterogeneity, a panel of different types of MPNST cell lines was used. The panel comprises both MPNST immortalized lines and MPNST cell lines derived from patients. […]

[14] = viability reduction class, 6 days

Structure (SMILES): CN1CCN(C(=O)[C@H](CCCN[C@@H]2C[C@H]2c2ccc(F)cc2)NC(=O)c2ccc(-n3ccnn3)cc2)CC1 [Bomedemstat, N-[(2S)-5-{[(1R,2S)-2-(4-fluorophenyl)cyclopropyl]amino}-1-(4-methylpiperazin-1-yl)-1-oxopentan-2-yl]-4-(1H-1,2,3-triazol-1-yl)benzamide]
- EC50 ([1]; 144 h): 1.28 nM
- EC50 ([2]; 144 h): 0.094 nM

Structure (SMILES): COc1ccc(-c2c(-c3ccc(C#N)c(F)c3)nc(N3CCC(N)CC3)n(C)c2=O)cc1F [Pulrodemstat, 4-[2-(4-aminopiperidin-1-yl)-5-(3-fluoro-4-methoxyphenyl)-1-methyl-6-oxo-1,6-dihydropyrimidin-4-yl]-2-fluorobenzonitrile]
- EC50 ([1]; 144 h): 0.261 nM
- EC50 ([2]; 144 h): 0.166 nM

Structure (SMILES): COc1cc([C@@H]2c3cc4c(cc3[C@@H](O[C@@H]3O[C@@H]5CO[C@@H](C)O[C@H]5[C@H](O)[C@H]3O)[C@H]3COC(=O)[C@H]23)OCO4)cc(OC)c1O [etoposide]
- EC50 ([3]; cell viability, MPNST-NF1-08, 6 days of treatment): 740 nM
- EC50 [4]: 269 nM
- EC50 [5]: 394 nM
- EC50 [6]: 205 nM
- EC50 [7]: 788 nM
- EC50 [1]: 108 nM
- EC50 [2]: 144 nM
- EC50 [8]: 164 nM
- EC50 [9]: 376 nM
- EC50 ([10]; cell viability, MPNST-NF1-09, 6 days of treatment): 737 nM
- EC50 ([11]; cell viability, NMS-2, 6 days of treatment): 154 nM
- EC50 ([12]; cell viability, MPNST-SP-01, 6 days of treatment): 1030 nM

Structure (SMILES): N[C@H]1CC[C@H](N[C@@H]2C[C@H]2c2ccccc2)CC1 [iadademstat, (trans)-N1-((1R,2S)-2-phenylcyclopropyl)cyclohexane-1,4-diamine]
- cell lines showing a strong viability reduction ([13]; 3 out of 12 cell lines, 6-day treatment): 25%
- cell lines showing a medium viability reduction ([13]; 5 out of 12 cell lines, 6-day treatment): 41.67%
- EC50 values (in words) ([13]; medium- and strong-responding cell lines): subnanomolar
- medium- and strong-responding cell lines, total ([13]; of 12 cell lines, 6-day treatment): 66.67%
- Response to iadademstat (viability assay) ([3]; viability reduction class, MPNST-NF1-08, 6 days): Low response (low response (viability reduction <15%))
- EC50 ([4]; 144 h): 0.033 nM
- Response to iadademstat (viability assay) ([4]; viability reduction class, MPNST-SP-10, 6 days): Medium response (medium response (viability reduction >15% and <30%))
- EC50 ([5]; 144 h): 0.025 nM
- Response to iadademstat (viability assay) [5, 14]: Strong response (strong response (viability reduction >30%))
- EC50 ([6]; 144 h): 0.046 nM
- Response to iadademstat (viability assay) [6, 14]: Medium response (medium response (viability reduction >15% and <30%))
- EC50 ([7]; 144 h): 0.039 nM
- Response to iadademstat (viability assay) ([7]; viability reduction class, ST88-14, 6 days): Medium response (medium response (viability reduction >15% and <30%))
- EC50 ([1]; 144 h): 0.042 nM
- potency among the LSD1 inhibitors tested (in words) ([1]; sNF96.2, compared with bomedemstat and pulrodemstat): highest potency
- Response to iadademstat (viability assay) ([1]; viability reduction class, sNF96.2, 6 days): Strong response (strong response (viability reduction >30%))
- EC50 ([2]; 144 h): 0.017 nM
- potency among the LSD1 inhibitors tested (in words) ([2]; sNF02.2, compared with bomedemstat and pulrodemstat): highest potency
- Response to iadademstat (viability assay) ([2]; viability reduction class, sNF02.2, 6 days): Medium response (medium response (viability reduction >15% and <30%))
- EC50 ([8]; 144 h): 0.026 nM
- Response to iadademstat (viability assay) [8, 14]: Medium response (medium response (viability reduction >15% and <30%))
- EC50 ([9]; 144 h): 0.087 nM
- Response to iadademstat (viability assay) ([9]; viability reduction class, S462, 6 days): Strong response (strong response (viability reduction >30%))
- Response to iadademstat (viability assay) ([10]; viability reduction class, MPNST-NF1-09, 6 days): Low response (low response (viability reduction <15%))
- Response to iadademstat (viability assay) ([11]; viability reduction class, NMS-2, 6 days): Low response (low response (viability reduction <15%))
- Response to iadademstat (viability assay) ([12]; viability reduction class, MPNST-SP-01, 6 days): Low response (low response (viability reduction <15%))
